Measurements from patent US11692212B2, “Diagnosis and treatment of invasive aspergillosis” (The Brigham and Women's Hospital, Inc., priority 2014, dated 2023).
Starred links: 1 amine or outer side, 2 acyl side, 3 side chain; linkers in the order of their positions; H or OH if unused. Positions of bridges follow the written chain, without caps; N, C: chain ends. Non-standard residues stand in square brackets, D forms with d. Residues, ends and D or L forms follow the SMILES beside them. *: point of attachment. hTyr(3S-OH,4S-OH,3'-OSO3H) = N[C@H](C(=O)O)[C@H](O)[C@@H](O)c1ccc(O)c(OS(=O)(=O)O)c1; Orn(4R-OH,5R-OH) = O=C([C@H](C[C@@H](O)[C@@H](O)N[*:3])N[*:1])[*:2]; Pro(3S-OH,4S-Me) = C[C@H]1CN[C@H](C(=O)O)[C@H]1O; X1 = CCCCCOc1ccc(-c2cc(-c3ccc(C(=O)*)cc3)no2)cc1; Gln(3R-OH) = NC(=O)C[C@@H](O)[C@H](N)C(=O)O; Hyp = O=C(O)[C@@H]1C[C@@H](O)CN1

Columns and labels:
A. terreus isolates = conditions: Baddley et al. 2009; cited from earlier work
[1] = system: A. fumigatus Af293 and A1163; test: A. fumigatus volatome response to antifungal drug exposure, headspace TD-GC-MS (Example 2); type: cell-based, Aspergillus fumigatus; conditions: 1.0 μg/mL; for all volatile metabolites 36 hours later: 36 hours after the 12-hour sampling
Procedure: We assessed whether we could modulate the A. fumigatus VOC metabolome with voriconazole, micafungin, and liposomal amphotericin B antifungal drug exposure, as described online (Methods). Headspace volatile metabolites of A. terreus, A. flavus, A. niger, and A. calidoustus were characterized as outlined above, in YPD broth at 96 hours.
Assessment of the A. fumigatus volatome response to antifungal drug exposure: For an assessment of A. fumigatus VOC response to antifungal drug exposure, 10^4A. fumigatus Af293 and A1163 conidia were inoculated into YPD broth and incubated at 37° C. at 250 rpm for 48 hours, then exposed to an inhibitory dose (1.0 μg/mL) of voriconazole (Pfizer Inc., New York, N.Y.), micafungin, liposomal amphotericin (both Astellas Pharma US, Inc., Northbrook, Ill.), or no antifungal therapy for 12 hours, in 4 technical replicates, with matched media controls exposed to the same conditions. VOCs in the headspace of each vial were extracted onto thermal desorption tubes. The cultures and media samples were incubated at 37° C. at 250 rpm for another 36 hours, with repeat extraction of the headspace gas onto thermal desorption tubes.
For both in vitro culture headspace extractions and patient breath samples, VOCs were thermally desorbed onto an automated thermal desorption unit (TD-100, Markes International) at 290° C. for 20 minutes with helium carrier gas at a flow rate of 40 mL per minute and concentrated onto a Unity2/TD-100 cold trap (U-15ATA-2S, Markes International). The cold trap was rapidly heated to 270° C. to deliver adsorbed VOCs (3.5:1 split) to a VF624 capillary column (30 m×0.32 mm, 6% cyanopropyl/phenyl, 94% polydimethylsiloxane, film thickness 1.8 μm, Agilent Technologies, Santa Clara, Calif.) with a gas chromatograph (GC) inlet temperature of 250° C. VOCs delivered to the capillary column were separated using a GC temperature program of 40° C. for 3 minutes, raised to 70° C. at a rate of 5° C. per minute and held for 3 minutes, raised to 203° C. at 7° C. per minute and held for 4 minutes, then rapidly raised to 270° C. and held for 5 minutes. A single quadrupole mass spectrometry (MS) detector (Agilent 5975, Agilent Technologies, Santa Clara, Calif.) was used to analyze and identify VOCs, with a MS source temperature of 230° C., MS quad temperature of 150° C., and an electron ionization parameter of […]. A mass range m/z 40-400 was measured with a threshold of 150.
We assessed whether we could modulate the A. fumigatus VOC metabolome with voriconazole, micafungin, and liposomal amphotericin B antifungal drug exposure. […]

Aspergillus fumigatus = test: Antifungal exposure of 48-hour hyphal cultures, headspace VOC release by GC-MS (Example 1); type: cell-based; set-up: increase in some of the key A. fumigatus VOC features / change of key A. fumigatus VOC features at 24 hours: dose or concentration left out as unconfirmed; conditions: for change of key A. fumigatus VOC features at 24 hours: vs matched controls
Procedure: For each experiment, 10^4 conidia were inoculated into 5 mL of microbial media (either nutrient Yeast Extract Peptone Dextrose (YPD) broth, nutrient poor Aspergillus minimal media (Pontecorvo et al., Advan Genet 1953; 5:141-238), or under iron-starved, alkaline stress, or nitrogen-depleted conditions (McDonagh et al., PLoS Pathog 2008; 4:e1000154)) in 20 mL glass vials with an airtight crimp top incorporating a rubber septum. Cultures were incubated for 24-144 hours at 200 rpm and 37° C. and headspace gas was dynamically adsorbed, using argon carrier gas and an air sampling pump calibrated to 20 mL/minute, onto Markes thermal desorption traps containing tandem beds of Tenax TA (200 mg), Carbograph 1 TD (100 mg), and Carboxen 1003 (100 mg), optimized to retain VOCs of diverse size and polarity.
Headspace VOCs were also collected after exposure of a subset of fungal isolates to the antifungal drugs voriconazole, liposomal amphotericin B, and micafungin, each at a concentration of […].
VOCs were desorbed onto a dual GC-MS/DMS system (FIG. 1)—the eluent from the gas chromatograph was split between the MS, to allow identification of each compound, and the DMS, an extremely sensitive and selective gas detector that can be easily used as a point-of-care gas detection device, to determine the mobility pattern for each compound. The NIST MS Search 2.0 Library was used to identify VOCs in the total ion chromatogram (TIC) of the GC-MS data. Differences in spectral features of DMS output were visually distinguished between the positive ion spectra of A. fumigatus and A. terreus and principal component analysis (PCA) was used to evaluate the degree of class discrimination between these fungal species using algorithms in MATLAB (Version R2012a).
Whether exposure to antifungal drugs might modulate VOC release in Aspergillus fumigatus was assessed in vitro.

[2] = drug added to 48-hour hyphal cultures, after 24 hours

Compound | susceptibility of some A. terreus isolates (A. terreus isolates) | primary metabolite, monoterpene, and sesquiterpene production ([1]; 12 hours of exposure) | all volatile metabolites 36 hours later [1] | change of key A. fumigatus VOC features at 24 hours (Aspergillus fumigatus; [2]) | β-trans-bergamotene increase from baseline ([1]; 12 hours of exposure, 48-hour hyphae in YPD broth) | increase in some of the key A. fumigatus VOC features (Aspergillus fumigatus; drug added to 48-hour hyphal cultures, after 24 hours, vs matched control samples without drug) | change of key A. fumigatus VOC features with longer incubation (Aspergillus fumigatus; longer duration of incubation and hyphal death)
C[C@@H]1[C@H](O)[C@@H](C)/C=C/C=C/C=C/C=C/C=C/C=C/C=C/[C@H](O[C@@H]2O[C@H](C)[C@@H](O)[C@H](N)[C@@H]2O)C[C@@H]2O[C@](O)(C[C@@H](O)C[C@@H](O)[C@H](O)CC[C@@H](O)C[C@@H](O)CC(=O)O[C@H]1C)C[C@H](O)[C@H]2C(=O)O [AMB, amphotericin B] | resistant | – | – | – | – | – | –
C[C@@H](c1ncncc1F)[C@](O)(Cn1cncn1)c1ccc(F)cc1F [voriconazole] | – | reduced | attenuation | near-complete attenuation | – | – | –
CCCCCOc1ccc(-c2cc(-c3ccc(C(=O)N[C@H]4C[C@@H](O)[C@@H](O)NC(=O)[C@@H]5[C@@H](O)[C@@H](C)CN5C(=O)[C@H]([C@H](O)CC(N)=O)NC(=O)[C@H]([C@H](O)[C@@H](O)c5ccc(O)c(OS(=O)(=O)O)c5)NC(=O)[C@@H]5C[C@@H](O)CN5C(=O)[C@H]([C@@H](C)O)NC4=O)cc3)no2)cc1 [micafungin] (X1-[Orn(4R-OH,5R-OH)]T[Hyp][hTyr(3S-OH,4S-OH,3'-OSO3H)][Gln(3R-OH)][Pro(3S-OH,4S-Me)]; lactam 1-C) | – | – | near-complete attenuation | initial increase | 10 fold | ≤ 17 fold | attenuation
